Assay results: patent publication US11407763B2, “Tryptophan hydroxylase inhibitor and pharmaceutical composition including same” (GWANGJU INSTITUTE OF SCIENCE AND TECHNOLOGY, priority 2017, dated 2022)
Where a name gives a salt, the structure may show the parent alone.

Experiments:
[1] = tested on: DSS colitis; assay: DSS colitis mouse model: colon length and colon looseness; format: in vivo, C57BL/6J mice; conditions: 100 mg/kg and 300 mg/kg oral, 7 days, 2.5% DSS
Experimental: (§1) C57BL/6J (Jackson Lab) male mice weighing 25±2 g at 9 weeks of age were used, and all the mice were fed freely by providing standard experimental feed. The compound of Example 53 and LX1606 were dissolved in 0.25% methylcellulose (MC) solution, which was orally administered to mice at the dose of 100 and 300 mg/kg/time using a 1 mL syringe. The compound of Example 53 and LX1606 were administered for 7 days, starting one day prior to dextran sulfate sodium (DSS) administration. Before and after the administration, the samples of colon tissue were collected from each mouse treated with the compound of Example 53 or the control drug (LX1606) to confirm clinical symptoms. Data are expressed as mean±standard error of mean (SEM), and all statistical analyses were performed using GraphPad Prism (version 5.0, GraphPad Software, La Jolla, Calif.). Differences in mean between groups were statistically analyzed by two-way analysis of variance (ANOVA) and multiple comparison tests to reveal the differences between the experimental groups. P<0.05 was considered statistically significant.
Enteritis was induced in mice by freely drinking 2.5% DSS (molecular weight: 36,000-50,000 M.Wt; manufactured by MP Biomedicals, Canada) aqueous solution for 6 days, and the body weight, stiffness of the stool, and the presence or absence of bloody stool were observed daily from the start of the administration. […]

[2] = tested on: DSS colitis; format: in vivo, C57BL/6J mice; conditions: mouse
Experimental: as §1, with “P<0.05 was considered statistically significant.” left out
Colon permeability was measured to confirm if the compound of the present invention affected the amelioration of inflammatory bowel disorder. […] The importance of the intestinal epithelial layer was measured by the changes in intercellular permeability and intimate junction function observed in inflammatory bowel disease (IBD) and colorectal cancer. […]

[3] = molecular target: TPH1 (tryptophan hydroxylase 1) (Homo sapiens (Human), UniProt P17752); assay: TPH1 inhibitor screening assay kit (BPS Bioscience), fluorescence; format: biochemical
Experimental: In order to confirm the inhibitory effect of the compound represented by formula 1 according to the present invention on the tryptophan hydroxylase activity, it was measured using a TPH1 (tryptophan hydroxylase 1) inhibitor screening assay kit (BPS Bioscience, Catalog #72053). The TPH1 inhibitor screening assay kit was used according to the manufacturer's manual.
Particularly, the synthesized compound was dissolved in DMSO, which was added to a 96-well microplate (10 ? /well), to which TPH1 enzyme was added (40 ? /well). Then, TPH1 reaction solution was added to the microplate (50 ? /well) and the microplate was shaded with aluminum foil. The microplate was transferred to 4° C. environment, shaken carefully and incubated for 4 hours. After adding a quench solution to the microplate (10 ? /well), the TPH1 activity was measured by reading the degree of fluorescence color development with a Flexstation3 microplate reader. At this time, the excitation spectrum was 300 nm and the emission spectrum was 360 nm.

[4] = TPH1 enzyme, 4 hours at 4° C., ex 300 nm / em 360 nm
[5] = TPH1 enzyme, 4 hours at 4° C., ex 300 nm / em 360 nm, hydrochloride

Sequence of TPH1 (tryptophan hydroxylase 1) (P17752 whole entry): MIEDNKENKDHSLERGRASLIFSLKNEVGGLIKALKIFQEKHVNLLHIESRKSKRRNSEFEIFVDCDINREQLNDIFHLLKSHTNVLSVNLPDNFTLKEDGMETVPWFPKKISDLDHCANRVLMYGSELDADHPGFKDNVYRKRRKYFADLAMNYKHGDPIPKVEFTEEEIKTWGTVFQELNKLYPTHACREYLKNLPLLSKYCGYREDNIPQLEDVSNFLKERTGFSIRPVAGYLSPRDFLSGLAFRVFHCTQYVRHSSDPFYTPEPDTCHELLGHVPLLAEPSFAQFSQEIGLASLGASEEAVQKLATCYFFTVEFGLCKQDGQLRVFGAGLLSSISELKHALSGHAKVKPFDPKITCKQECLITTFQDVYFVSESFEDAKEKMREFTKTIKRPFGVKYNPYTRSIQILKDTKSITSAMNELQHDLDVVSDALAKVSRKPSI

Row | IC50 [3, 4] [nM] | Structure (SMILES) | other results
1 | 209 | Nc1nc(O[C@H](c2ccc(Cl)cc2C2=CCCOC2)C(F)(F)F)cc(C2=CCC3(CC2)CNC(C(=O)O)C3)n1 (stereo partly drawn) [Example 94, 8-(2-amino-6-((R)-1-(4-chloro-2-(5,6-dihydro-2H-pyran-3-yl)phenyl)-2,2,2-trifluoroethoxy)pyrimidine-4-yl)-2-azaspiro[4.5]dec-7-ene-3-carboxylic acid hydrochloride] | 
2 | 307 | Cc1ccn(-c2cc(Cl)ccc2[C@@H](Oc2ncnc3c(C4=CCC5(CC4)CNC(C(=O)O)C5)csc23)C(F)(F)F)n1 (stereo partly drawn) [Example 84, 8-(4-((R)-1-(4-chloro-2-(3-methyl-1H-pyrazole-1-yl)phenyl)-2,2,2-trifluoroethoxy)thieno[3,2-d]pyrimidine-7-yl)-2-azaspiro[4.5]dec-7-ene-3-carboxylic acid hydrochloride] | 
3 | 371 | N[C@@H](Cc1ccc(-c2csc3c(O[C@H](c4ccc(Cl)cc4C4=CCCOC4)C(F)(F)F)ncnc23)cc1)C(=O)O [Example 70, (S)-2-amino-3-(4-(4-((R)-1-(4-chloro-2-(5,6-dihydro-2H-pyran-3-yl)phenyl)-2,2,2-trifluoroethoxy)thieno[3,2-d]pyrimidine-7-yl)phenyl)propionic acid] | 

Second part, the compound before the results:

Row | Structure (SMILES) | IC50 [3, 4] [nM] | other results
4 | CCOC(=O)[C@@H](N)Cc1ccc(-c2cc(O[C@H](c3ccc(Cl)cc3-n3ccc(C)n3)C(F)(F)F)nc(N)n2)cc1 [LX1606, (2S)-2-Amino-3-[4-[2-amino-6-[[(1R)-1-[4-chloro-2-(3-methylpyrazol-1-yl)phenyl]-2,2,2-trifluoroethyl]oxy]pyrimidin-4-yl]phenyl]propionic acid ethyl ester] |  | colon length compared with vehicle group [1]: not longer than that of the group treated with vehicle
5 | CCOC(=O)[C@@H](N)CC1CC=C(c2cc(O[C@H](c3ccc(Cl)cc3-n3ccc(C)n3)C(F)(F)F)nc(N)n2)CC1 (stereo partly drawn) [Example 53, ethyl (2S)-2-amino-3-(4-(2-amino-6-((R)-1-(4-chloro-2-(3-methyl-1H-pyrazole-1-yl)phenyl)-2,2,2-trifluoroethoxy)pyrimidine-4-yl)cyclohex-3-ene-1-yl)propionate hippurate] |  | colon permeability [2]: lower permeability was observed on average
6 | Cc1ccn(-c2cc(Cl)ccc2[C@@H](Oc2cc(C3=CCC(C[C@H](N)C(=O)O)CC3)nc(C)n2)C(F)(F)F)n1 (stereo partly drawn) [Example 32, (2S)-2-amino-3-(4-(6-((R)-1-(4-chloro-2-(3-methyl-1H-pyrazole-1-yl)phenyl)-2,2,2-trifluoroethoxy)-2-methylpyrimidine-4-yl)cyclohex-3-ene-1-yl)propionic acid hydrochloride] | 1820 | 
7 | COc1cccc(-c2ccc([C@@H](Oc3cc(C4=CCC(C[C@H](N)C(=O)O)CC4)nc(N)n3)C(F)(F)F)cc2)c1 (stereo partly drawn) [Example 34, (2S)-2-amino-3-(4-(2-amino-6-((R)-2,2,2-trifluoro-1-(3′-methoxy-[1,1′-biphenyl]-4-yl)ethoxy)pyrimidine-4-yl)cyclohex-3-ene-1-yl)propionic acid hydrochloride] |  | IC50 [3, 5]: 281 nM
8 | COc1cccc(-c2ccc([C@@H](Oc3cc(C4=CCC5(CC4)CNC(C(=O)O)C5)nc(N)n3)C(F)(F)F)cc2)c1 (stereo partly drawn) [Example 87, 8-(2-amino-6-((R)-2,2,2-trifluoro-1-(3′-methoxy-[1,1′-biphenyl]-4-yl)ethoxy)pyrimidine-4-yl)-2-azaspiro[4.5]dec-7-ene-3-carboxylic acid hydrochloride] |  | IC50 [3, 5]: 741 nM
9 | COc1cccc(-c2ccc(Cn3ccc4c(-c5ccc(C[C@H](N)C(=O)O)cc5)ncnc43)cc2)c1 [Example 23, (S)-2-amino-3-(4-(7-((3′-methoxy-[1,1′-biphenyl]-4-yl)methyl)-7H-pyrrolo[2,3-d]pyrimidine-4-yl)phenyl)propionic acid hydrochloride] | 578 | 
10 | N[C@@H](Cc1ccc(-c2csc3c(OC(c4ccc(Cl)cc4-c4ccccc4)C(F)(F)F)ncnc23)cc1)C(=O)O (stereo partly drawn) [Example 26, (2S)-2-amino-3-(4-(4-(1-(5-chloro-[1,1′-biphenyl]-2-yl)-2,2,2-trifluoroethoxy)thieno[3,2-d]pyrimidine-7-yl)phenyl)propionic acid hydrochloride] | 679 | 
11 | Cc1ccn(-c2cc(Cl)ccc2[C@@H](Oc2cc(C3=CCC(C[C@H](N)C(=O)O)CC3)nc(N)n2)C(F)(F)F)n1 (stereo partly drawn) [Example 45, (2S)-2-amino-3-(4-(2-amino-6-((R)-1-(4-chloro-2-(3-methyl-1H-pyrazole-1-yl)phenyl)-2,2,2-trifluoroethoxy)pyrimidine-4-yl)cyclohex-3-ene-1-yl)propionic acid] | 98 | IC50 ([3]; TPH1): 98 nM
12 | COc1cccc(-c2ccc([C@@H](Oc3cc(C4=CCC(C[C@H](N)C(=O)O)CC4)nc(N)n3)C(F)(F)F)cc2)c1 (stereo partly drawn) [Example 58, (2S)-2-amino-3-(4-(2-amino-6-((R)-2,2,2-trifluoro-1-(3′-methoxy-[1,1′-biphenyl]-4-yl)ethoxy)pyrimidine-4-yl)cyclohex-3-ene-1-yl)propionic acid] | 204 | 
